Assay results taken from patent publication US11214565B2, “Compound, compositions, and methods” (Denali Therapeutics Inc., priority 2015, dated 2022).

biological target: LRRK2 G2019S enzyme (Homo sapiens (Human), UniProt Q5S007, G2019S); experiment: LRRK2 G2019S TR-FRET biochemical kinase assay (LRRKtide substrate); settings: Table A-2; 5 nM LRRK2, 134 μM ATP, 60 minute reaction, 23° C.
Summary of the method: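 TR-FRET phospho-LRRKtide readout (2 nM antibody, 10 mM EDTA, 60 min) after a 60 min, 23 °C kinase reaction. The reaction used 134 μM ATP and 5 nM enzyme in pH 7.5 Tris/MgCl2/EGTA/DTT buffer, with compound and enzyme-substrate mix preincubated for 20 min beforehand.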

Sequence of LRRK2 G2019S enzyme (Q5S007 whole entry G2019S): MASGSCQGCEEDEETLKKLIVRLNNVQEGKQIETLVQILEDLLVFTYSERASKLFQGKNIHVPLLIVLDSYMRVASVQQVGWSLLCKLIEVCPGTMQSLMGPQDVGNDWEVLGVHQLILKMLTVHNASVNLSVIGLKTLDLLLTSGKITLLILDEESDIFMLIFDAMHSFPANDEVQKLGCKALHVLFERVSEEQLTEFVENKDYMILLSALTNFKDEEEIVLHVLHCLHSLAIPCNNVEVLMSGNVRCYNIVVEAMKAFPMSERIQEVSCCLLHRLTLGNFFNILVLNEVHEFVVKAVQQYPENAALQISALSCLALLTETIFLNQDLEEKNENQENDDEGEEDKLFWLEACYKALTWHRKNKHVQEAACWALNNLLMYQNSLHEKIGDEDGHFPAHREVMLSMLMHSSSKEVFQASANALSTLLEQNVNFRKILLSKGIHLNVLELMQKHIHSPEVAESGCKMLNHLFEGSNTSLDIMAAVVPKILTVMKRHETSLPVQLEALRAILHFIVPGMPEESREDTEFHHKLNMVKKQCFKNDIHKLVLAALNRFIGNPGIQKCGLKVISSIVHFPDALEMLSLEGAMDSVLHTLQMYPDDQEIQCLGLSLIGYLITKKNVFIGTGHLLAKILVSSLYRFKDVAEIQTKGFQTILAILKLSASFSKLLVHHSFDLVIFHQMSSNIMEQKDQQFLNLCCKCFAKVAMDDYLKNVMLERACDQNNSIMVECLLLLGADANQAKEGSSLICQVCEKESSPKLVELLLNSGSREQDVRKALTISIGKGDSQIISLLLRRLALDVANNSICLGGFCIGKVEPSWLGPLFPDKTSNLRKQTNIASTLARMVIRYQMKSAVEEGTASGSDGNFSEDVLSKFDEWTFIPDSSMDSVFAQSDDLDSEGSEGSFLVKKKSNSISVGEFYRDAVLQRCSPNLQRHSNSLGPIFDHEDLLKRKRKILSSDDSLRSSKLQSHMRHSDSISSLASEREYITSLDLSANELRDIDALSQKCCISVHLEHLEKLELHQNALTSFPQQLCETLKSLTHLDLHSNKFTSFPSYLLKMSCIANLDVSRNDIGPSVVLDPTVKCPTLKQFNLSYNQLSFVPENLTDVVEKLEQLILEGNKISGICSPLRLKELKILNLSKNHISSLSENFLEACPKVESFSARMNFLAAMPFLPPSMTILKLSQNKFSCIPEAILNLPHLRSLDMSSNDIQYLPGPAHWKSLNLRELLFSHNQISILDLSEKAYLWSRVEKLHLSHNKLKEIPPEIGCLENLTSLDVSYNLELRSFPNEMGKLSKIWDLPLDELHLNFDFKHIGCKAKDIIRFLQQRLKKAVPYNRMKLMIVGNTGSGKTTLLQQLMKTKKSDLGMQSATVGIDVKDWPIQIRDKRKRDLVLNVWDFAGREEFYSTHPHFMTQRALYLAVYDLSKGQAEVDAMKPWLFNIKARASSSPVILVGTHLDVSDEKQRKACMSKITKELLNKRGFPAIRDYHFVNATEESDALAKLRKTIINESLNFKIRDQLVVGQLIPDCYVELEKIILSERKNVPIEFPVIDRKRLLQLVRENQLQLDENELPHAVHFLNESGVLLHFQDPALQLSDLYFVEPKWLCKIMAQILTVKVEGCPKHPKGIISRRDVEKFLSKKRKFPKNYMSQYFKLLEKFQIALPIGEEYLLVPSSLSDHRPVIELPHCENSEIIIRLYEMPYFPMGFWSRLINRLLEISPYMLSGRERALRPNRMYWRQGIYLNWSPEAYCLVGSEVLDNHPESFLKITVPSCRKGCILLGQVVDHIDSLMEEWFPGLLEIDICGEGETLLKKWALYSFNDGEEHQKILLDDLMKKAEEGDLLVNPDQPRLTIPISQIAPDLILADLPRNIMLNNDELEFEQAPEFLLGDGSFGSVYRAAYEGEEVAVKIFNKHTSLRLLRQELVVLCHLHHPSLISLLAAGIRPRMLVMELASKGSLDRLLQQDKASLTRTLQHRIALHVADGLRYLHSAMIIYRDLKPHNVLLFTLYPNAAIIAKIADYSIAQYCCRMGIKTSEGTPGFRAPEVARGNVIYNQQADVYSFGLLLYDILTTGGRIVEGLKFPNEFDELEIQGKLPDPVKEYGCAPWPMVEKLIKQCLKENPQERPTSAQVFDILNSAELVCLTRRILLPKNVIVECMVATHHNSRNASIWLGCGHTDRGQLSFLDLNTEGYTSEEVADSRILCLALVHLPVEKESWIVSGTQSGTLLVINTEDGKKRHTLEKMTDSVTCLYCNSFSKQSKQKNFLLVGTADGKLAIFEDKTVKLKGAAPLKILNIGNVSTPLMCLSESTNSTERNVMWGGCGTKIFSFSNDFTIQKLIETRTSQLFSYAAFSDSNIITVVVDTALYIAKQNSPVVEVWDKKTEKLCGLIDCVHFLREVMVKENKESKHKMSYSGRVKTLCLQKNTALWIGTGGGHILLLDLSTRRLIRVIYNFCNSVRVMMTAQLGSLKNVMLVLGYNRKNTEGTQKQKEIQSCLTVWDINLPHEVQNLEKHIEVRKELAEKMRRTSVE

IC50 [nM]	Structure (SMILES)
< 30	Cc1nn([C@H]2C[C@H](c3ncnn3C)C2)cc1Nc1ncc(C(F)(F)F)c(C2CC2)n1 [Compound A-81, 4-cyclopropyl-N-(3-methyl-1-((1r,3r)-3-(1-methyl-1H-1,2,4-triazol-5-yl)cyclobutyl)-1H-pyrazol-4-yl)-5-(trifluoromethyl)pyrimidin-2-amine]
< 30	Cc1nn(C(F)(F)C(N)=O)cc1Nc1ncc(C(F)(F)F)c(C2CC2)n1 [Compound A-87]
< 30	Cc1c(Nc2ncc(C(F)(F)F)c(C3CC3)n2)cnn1C1(C)CCNC1=O (stereo not drawn) [Compound A-93]

same assay, conditions: Table B-2; 5 nM LRRK2, 134 μM ATP, 60 minute reaction, 23° C.

IC50 [nM]	Structure (SMILES)
1 to 2	CNc1nc(Nc2cnn(C)c2C)nc2[nH]cc(Cl)c12 [Compound B-1, 5-chloro-N^2-(1,5-dimethylpyrazol-4-yl)-N4-methyl-7H-pyrrolo[2,3-d]pyrimidine-2,4-diamine]
≤ 1	CCNc1nc(Nc2cn(C(C)(C)C#N)nc2C)nc2[nH]cc(Cl)c12 [Compound B-2, 2-[4-[[5-chloro-4-(ethylamino)-7H-pyrrolo[2,3-d]pyrimidin-2-yl]amino]-3-methyl-pyrazol-1-yl]-2-methyl-propanenitrile]
≤ 1	CCOc1nc(Nc2cn(C(C)(C)C#N)nc2C)nc2[nH]cc(Cl)c12 [Compound B-3, 2-[4-[[5-chloro-4-ethoxy-7H-pyrrolo[2,3-d]pyrimidin-2-yl]amino]-3-methyl-pyrazol-1-yl]-2-methyl-propanenitrile]
2 to 20	CNc1nc(Nc2cn(C)nc2C)nc2[nH]cc(Cl)c12 [Compound B-4, 5-chloro-N^2-(1,3-dimethyl-1H-pyrazol-4-yl)-N^4-methyl-7H-pyrrolo[2,3-d]pyrimidine-2,4-diamine]
1 to 2	COc1nc(Nc2cn(C(C)(C)C#N)nc2C)nc2[nH]cc(Cl)c12 [Compound B-5, 2-[4-[(5-chloro-4-methoxy-7H-pyrrolo[2,3-d]pyrimidin-2-yl)amino]-3-methyl-pyrazol-1-yl]-2-methyl-propanenitrile]
≤ 1	CNc1nc(Nc2cn(C(C)(C)C#N)nc2C)nc2[nH]cc(Cl)c12 [Compound B-6, 2-[4-[[5-Chloro-4-(methylamino)-7H-pyrrolo[2,3-d]pyrimidin-2-yl]amino]-3-methyl-pyrazol-1-yl]-2-methyl-propanenitrile]
2 to 20	COc1nc(Nc2cn(C(C)(C)C#N)nc2C)nc2[nH]cnc12 [Compound B-7, 2-(4-((6-methoxy-9H-purin-2-yl)amino)-3-methyl-1H-pyrazol-1-yl)-2-methylpropanenitrile]
1 to 2	COc1nc(Nc2cnn(C)c2C)nc2[nH]cc(Cl)c12 [Compound B-8, 5-chloro-N-(1,5-dimethylpyrazol-4-yl)-4-methoxy-7H-pyrrolo[2,3-d]pyrimidin-2-amine]
2 to 20	COc1nc(Nc2cn(C)nc2C)nc2[nH]cc(Cl)c12 [Compound B-9, 5-chloro-N-(1,3-dimethylpyrazol-4-yl)-4-methoxy-7H-pyrrolo[2,3-d]pyrimidin-2-amine]
1 to 2	CNc1nc(Nc2cn(C(C)(C)C#N)nc2C)nc2[nH]cc(F)c12 [Compound B-10, 2-(4-((5-fluoro-4-(methylamino)-7H-pyrrolo[2,3-d]pyrimidin-2-yl)amino)-3-methyl-1H-pyrazol-1-yl)-2-methylpropanenitrile]
1 to 2	COc1nc(Nc2cn(C(C)(C)C#N)nc2C)nc2[nH]cc(F)c12 [Compound B-11, 2-[4-[(5-fluoro-4-methoxy-7H-pyrrolo[2,3-d]pyrimidin-2-yl)amino]-3-methyl-pyrazol-1-yl]-2-methyl-propanenitrile]
2 to 20	CCOc1nc(Nc2cn(C(C)(C)C#N)nc2C)nc2[nH]cnc12 [Compound B-12, 2-[4-[(6-ethoxy-9H-purin-2-yl)amino]-3-methyl-pyrazol-1-yl]-2-methyl-propanenitrile]
2 to 20	COc1nc(Nc2cn(C(C)(C)C#N)nc2C)nc2[nH]cc(C3CC3)c12 [Compound B-13, 2-[4-[(5-cyclopropyl-4-methoxy-7H-pyrrolo[2,3-d]pyrimidin-2-yl)amino]-3-methyl-pyrazol-1-yl]-2-methyl-propanenitrile]
2 to 20	COc1nc(Nc2cn(C(C)(C)C#N)nc2C)nc2[nH]cc(C(F)(F)F)c12 [Compound B-14, 2-(4-((4-methoxy-5-(trifluoromethyl)-7H-pyrrolo[2,3-d]pyrimidin-2-yl)amino)-3-methyl-1H-pyrazol-1-yl)-2-methylpropanenitrile]

same assay, conditions: Table C-2; 5 nM LRRK2, 134 μM ATP, 60 minute reaction, 23° C.

IC50 [nM]	Structure (SMILES)
< 50	Cc1nn(C(CF)CF)cc1Nc1nc(C2CC2)c2nc[nH]c2n1 [Compound C-1, 6-cyclopropyl-N-[1-[2-fluoro-1-(fluoromethyl)ethyl]-3-methyl-pyrazol-4-yl]-9H-purin-2-amine]
< 50	Cc1c(Nc2nc(C3CC3)c3nc[nH]c3n2)cnn1C(CF)CF [Compound C-2, 6-cyclopropyl-N-(1-(1,3-difluoropropan-2-yl)-5-methyl-1H-pyrazol-4-yl)-9H-purin-2-amine]
< 50	Cc1c(Nc2nc(C3CC3)c3nc[nH]c3n2)cnn1C(F)F [Compound C-4, 6-cyclopropyl-N-(1-(difluoromethyl)-5-methyl-1H-pyrazol-4-yl)-9H-purin-2-amine]
< 50	Cc1c(Nc2nc(C3CC3)c3nc[nH]c3n2)cnn1C [Compound C-5, 6-cyclopropyl-N-(1,5-dimethylpyrazol-4-yl)-9H-purin-2-amine]
< 50	Cc1nn(C)cc1Nc1nc(C2CC2)c2nc[nH]c2n1 [Compound C-6, 6-cyclopropyl-N-(1,3-dimethylpyrazol-4-yl)-9H-purin-2-amine]
< 50	Cc1c(Nc2nc(C3CC3)c3nc[nH]c3n2)cnn1CC1CC1 [Compound C-7, 6-cyclopropyl-N-(1-(cyclopropylmethyl)-5-methyl-1H-pyrazol-4-yl)-9H-purin-2-amine]
< 50	c1nc2c(C3CC3)nc(Nc3cnn4c3CC3(CC3)C4)nc2[nH]1 [Compound C-8, N-(6-cyclopropyl-9H-purin-2-yl)spiro[4,6-dihydropyrrolo[1,2-b]pyrazole-5,1 cyclopropane]-3-amine]
< 50	Cc1nn(C(C)(C)C#N)cc1Nc1nc(C2CC2)c2nc[nH]c2n1 [Compound C-9, 2-(4-((6-cyclopropyl-9H-purin-2-yl)amino)-3-methyl-1H-pyrazol-1-yl)-2-methylpropanenitrile]
< 50	Cc1nn(C(C)(C)C#N)cc1Nc1nc(C2CC2)c2c(C#N)c[nH]c2n1 [Compound C-10, 2-[[1-(1-cyano-1-methyl-ethyl)-3-methyl-pyrazol-4-yl]amino]-4-cyclopropyl-7H-pyrrolo[2,3-d]pyrimidine-5-carbonitrile]
< 50	Cc1c(Nc2nc(C3CC3)c3c(C#N)c[nH]c3n2)cnn1C(CF)CF [Compound C-11, 4-cyclopropyl-2-[[1-[2-fluoro-1-(fluoromethyl)ethyl]-5-methyl-pyrazol-4-yl]amino]-7H-pyrrolo[2,3-d]pyrimidine-5-carbonitrile]
< 50	Cc1nn(C(CF)CF)cc1Nc1nc(C2CC2)c2c(C#N)c[nH]c2n1 [Compound C-12, 4-cyclopropyl-2-[[1-[2-fluoro-1-(fluoromethyl)ethyl]-3-methyl-pyrazol-4-yl]amino]-7H-pyrrolo[2,3-d]pyrimidine-5-carbonitrile]
< 50	N#Cc1c[nH]c2nc(Nc3cnn4c3CC3(CC3)C4)nc(C3CC3)c12 [Compound C-13, 4-cyclopropyl-2-(spiro[4,6-dihydropyrrolo[1,2-b]pyrazole-5,1′-cyclopropane]-3-ylamino)-7H-pyrrolo[2,3-d]pyrimidine-5-carbonitrile]
< 50	Cc1nn(C(C)(C)C#N)cc1Nc1nc(C2CC2)c2c(F)c[nH]c2n1 [Compound C-14, 2-[4-[(4-cyclopropyl-5-fluoro-7H-pyrrolo[2,3-d]pyrimidin-2-yl)amino]-3-methyl-pyrazol-1-yl]-2-methyl-propanenitrile]
> 100	Cn1ccc(Nc2cc(C3CC3)c3nc[nH]c3n2)n1 [Compound C-17, 7-cyclopropyl-N-(1-methyl-1H-pyrazol-3-yl)-3H-imidazo[4,5-b]pyridin-5-amine]
< 50	Cc1c(Nc2nc(C3CC3)c3c(C#N)c[nH]c3n2)cnn1C [Compound C-18, 4-cyclopropyl-2-[(1,5-dimethylpyrazol-4-yl)amino]-7H-pyrrolo[2,3-d]pyrimidine-5-carbonitrile]
< 50	Cc1nn(C)cc1Nc1nc(C2CC2)c2c(C#N)c[nH]c2n1 [Compound C-19, 4-cyclopropyl-2-[(1,3-dimethylpyrazol-4-yl)amino]-7H-pyrrolo[2,3-d]pyrimidine-5-carbonitrile]
< 50	Cc1cn(C)nc1Nc1cc(C2CC2)c2c(C#N)c[nH]c2n1 [Compound C-20, 4-cyclopropyl-6-((1,4-dimethyl-1H-pyrazol-3-yl)amino)-1H-pyrrolo[2,3-b]pyridine-3-carbonitrile]
< 50	Cn1ccc(Nc2cc(C3CC3)c3c(C#N)c[nH]c3n2)n1 [Compound C-21, 4-cyclopropyl-6-((1-methyl-1H-pyrazol-3-yl)amino)-1H-pyrrolo[2,3-b]pyridine-3-carbonitrile]
< 50	Cc1nn(C(C)(C)C#N)cc1Nc1nc(C2CC2)c2c(Cl)c[nH]c2n1 [Compound C-22]
< 50	Cc1nn(C(C)(C)C#N)cc1Nc1nc(C2CC2)c2cc[nH]c2n1 [Compound C-23]
< 50	Cc1nn(C)cc1Nc1nc(C2CC2)c2cc[nH]c2n1 [Compound C-24]
< 50	Cc1c(Nc2nc(C3CC3)c3cc[nH]c3n2)cnn1C [Compound C-25]
< 50	Cc1nn(C(C)(C)c2ncn(C)n2)cc1Nc1nc(C2CC2)c2c(C#N)c[nH]c2n1 [Compound C-26]
< 50	Cc1nn(C(C)(C)c2ncn(C)n2)cc1Nc1nc(C2CC2)c2cc[nH]c2n1 [Compound C-27]
< 50	Cc1nn(C(C)(C)c2ncn(C)n2)cc1Nc1nc(C2CC2)c2c(Cl)c[nH]c2n1 [Compound C-28]
